In ChEMBL document CHEMBL1201862, “PubChem BioAssay data set” (2004):
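Step 1: Grow cells in 96-well plates. Step 2: Expose to compound for 48 hours at 5 concentrations. Step 3: Interpolate endpoints linearly; if unreached, use highest concentration. GI50 marks 50% less growth.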 Active and inactive are the calls of the source. No stated cut-off is given here; in the data, active = GI50 up to about 1.1 µM and inactive = higher.

Columns and labels:
Assay in all cases: DTP human tumour cell line panel, 48 h
MOLT-4 = system: MOLT-4
HCC 2998 = system: HCC 2998
SW-620 = system: SW-620
MDA-MB-231 = system: MDA-MB-231
HOP-62 = system: HOP-62
ACHN = system: ACHN
OVCAR-8 = system: OVCAR-8
SK-OV-3 = system: SK-OV-3
SN12C = system: SN12C
SK-MEL-5 = system: SK-MEL-5
NCI-H460 = system: NCI-H460
K562 = system: K562
HCT-116 = system: HCT-116
HT-29 = system: HT-29
786-0 = system: 786-0
NCI-H226 = system: NCI-H226
SK-MEL-28 = system: SK-MEL-28

Measured: GI50

CCCCc1ccc(Nc2nc(S)c3ncn(COCCO)c3n2)cc1
inactive: MOLT-4 33.5 µM | HCC 2998 36.8 µM | SW-620 69 µM | MDA-MB-231 15.4 µM | HOP-62 31 µM | ACHN 43.1 µM | OVCAR-8 45.4 µM | SK-OV-3 > 100 µM | SN12C 39.7 µM | SK-MEL-5 62.1 µM | NCI-H460 41.5 µM | K562 15.5 µM | HCT-116 65 µM | HT-29 50.5 µM | 786-0 > 100 µM | NCI-H226 88.7 µM

COc1ccc(N2C(=O)C3c4[nH]c5ccccc5c4C4CCCCCCCC4C3C2=O)cc1 (configuration not stated)
inactive: MOLT-4 > 10 µM | HCC 2998 > 10 µM | SW-620 > 10 µM | MDA-MB-231 > 10 µM | HOP-62 > 10 µM | ACHN > 10 µM | SK-MEL-28 > 10 µM | OVCAR-8 > 10 µM | SK-OV-3 > 10 µM | SN12C > 10 µM | SK-MEL-5 > 10 µM | NCI-H460 > 10 µM | K562 > 10 µM | HCT-116 1.7 µM | HT-29 > 10 µM | NCI-H226 > 10 µM

NNc1[nH]c(=S)[nH]c1C(N)=O
inactive: MOLT-4 > 100 µM | HCC 2998 > 100 µM | SW-620 > 100 µM | MDA-MB-231 > 100 µM | HOP-62 > 100 µM | SK-MEL-28 > 100 µM | OVCAR-8 > 100 µM | SK-OV-3 > 100 µM | SN12C > 100 µM | SK-MEL-5 > 100 µM | NCI-H460 > 100 µM | HCT-116 > 100 µM | HT-29 > 100 µM | 786-0 > 100 µM | NCI-H226 > 100 µM

O=C1Nc2ccccc2/C1=N/Nc1nc(-c2ccccc2)cs1
inactive: MOLT-4 45.2 µM | HCC 2998 52.5 µM | SW-620 > 100 µM | MDA-MB-231 28.3 µM | HOP-62 18.2 µM | ACHN 24.5 µM | SK-MEL-28 36.1 µM | OVCAR-8 40.1 µM | SK-OV-3 59 µM | SN12C 27.1 µM | SK-MEL-5 25.8 µM | NCI-H460 14.7 µM | HCT-116 31.9 µM | HT-29 27.7 µM | 786-0 26.4 µM | NCI-H226 > 100 µM

Cc1cc(C#N)c(Nc2ccc(F)cc2[N+](=O)[O-])s1
inactive: MOLT-4 > 100 µM | HCC 2998 > 100 µM | SW-620 > 100 µM | MDA-MB-231 21.5 µM | HOP-62 30.3 µM | ACHN 83.8 µM | SK-MEL-28 > 100 µM | OVCAR-8 > 100 µM | SK-OV-3 > 100 µM | SN12C > 100 µM | NCI-H460 > 100 µM | K562 > 100 µM | HCT-116 > 100 µM | 786-0 54.5 µM | NCI-H226 > 100 µM

O=C1C2=Cc3ccccc3OC2(O)Oc2ccc(O)cc21 (configuration not stated)
inactive: MOLT-4 62.5 µM | HCC 2998 > 100 µM | SW-620 > 100 µM | MDA-MB-231 > 100 µM | HOP-62 57.1 µM | ACHN 15.8 µM | SK-MEL-28 > 100 µM | OVCAR-8 69.5 µM | SK-OV-3 > 100 µM | SN12C > 100 µM | SK-MEL-5 44.1 µM | K562 28.1 µM | HCT-116 > 100 µM | HT-29 > 100 µM | 786-0 > 100 µM | NCI-H226 > 100 µM

Cc1cn(C2CC(n3cc(Cn4cc(I)c(=O)[nH]c4=O)nn3)C(CO)O2)c(=O)[nH]c1=O (configuration not stated)
inactive: MOLT-4 > 100 µM | HCC 2998 > 100 µM | SW-620 > 100 µM | MDA-MB-231 > 100 µM | HOP-62 > 100 µM | ACHN > 100 µM | SK-MEL-28 > 100 µM | OVCAR-8 > 100 µM | SK-OV-3 > 100 µM | SN12C > 100 µM | SK-MEL-5 > 100 µM | HCT-116 > 100 µM | NCI-H226 > 100 µM

CN(C)/C=N/S(=O)(=O)c1nn2c(C=O)c(-c3ccc([N+](=O)[O-])cc3)nc2s1
inactive: MOLT-4 2.35 µM | HCC 2998 17.4 µM | SW-620 2.52 µM | MDA-MB-231 12.4 µM | HOP-62 26.1 µM | ACHN 2.03 µM | SK-MEL-28 4.23 µM | OVCAR-8 3.67 µM | SK-OV-3 53.7 µM | SN12C 5.42 µM | SK-MEL-5 3.3 µM | NCI-H460 13.6 µM | K562 2.43 µM | HCT-116 1.67 µM | HT-29 1.54 µM | 786-0 2.29 µM | NCI-H226 19.6 µM

C=CC(=O)C#Cc1cnc(OC)nc1OC
inactive: MOLT-4 1.69 µM | HCC 2998 19 µM | SW-620 4.95 µM | MDA-MB-231 19.8 µM | HOP-62 22.8 µM | ACHN 7.43 µM | SK-MEL-28 10.4 µM | OVCAR-8 26.7 µM | SK-OV-3 > 100 µM | SN12C 18.7 µM | SK-MEL-5 15.2 µM | NCI-H460 24.6 µM | K562 1.38 µM | HCT-116 9.59 µM | HT-29 16.1 µM | 786-0 4.15 µM | NCI-H226 > 48.5 µM

Cc1cc2ncn(C3CCCO3)c2cc1C (configuration not stated)
inactive: MOLT-4 > 100 µM | HCC 2998 > 100 µM | SW-620 > 100 µM | MDA-MB-231 > 100 µM | HOP-62 > 100 µM | ACHN > 100 µM | SK-MEL-28 > 100 µM | OVCAR-8 > 100 µM | SK-OV-3 > 100 µM | SN12C > 100 µM | SK-MEL-5 > 100 µM | K562 > 100 µM | HCT-116 > 100 µM | HT-29 > 100 µM | 786-0 > 100 µM | NCI-H226 > 100 µM

O=C1/C(=C\c2cccc(Oc3ccccc3)c2)S(=O)(=O)C(c2ccccc2)N1c1cc(Cl)ccc1Cl (configuration not stated)
inactive: MOLT-4 3.84 µM | HCC 2998 21.7 µM | SW-620 3.83 µM | MDA-MB-231 28.7 µM | HOP-62 19.4 µM | ACHN 18.8 µM | SK-MEL-28 17.3 µM | OVCAR-8 5.06 µM | SK-OV-3 39.4 µM | SN12C 16.9 µM | SK-MEL-5 17 µM | NCI-H460 28.1 µM | K562 3.74 µM | HCT-116 4.6 µM | HT-29 5.96 µM | 786-0 16.1 µM

O=C(NCCCl)Nc1cccnc1
inactive: MOLT-4 33 µM | HCC 2998 17.7 µM | SW-620 50.7 µM | MDA-MB-231 17.4 µM | HOP-62 34.4 µM | ACHN 13.6 µM | SK-MEL-28 21.2 µM | OVCAR-8 12.4 µM | SK-OV-3 20.6 µM | SN12C 21.5 µM | SK-MEL-5 5.19 µM | K562 50 µM | HCT-116 13.8 µM | HT-29 18.4 µM | 786-0 16.9 µM | NCI-H226 15.7 µM

COc1ccc(-c2cc(O)c3cccnc3n2)cc1
inactive: MOLT-4 29.3 µM | HCC 2998 82 µM | SW-620 32.2 µM | MDA-MB-231 > 100 µM | HOP-62 44.3 µM | ACHN 53.7 µM | SK-MEL-28 44 µM | OVCAR-8 57.1 µM | SK-OV-3 26.7 µM | SN12C 36.7 µM | K562 25.8 µM | HT-29 15.7 µM | NCI-H226 45.1 µM
